Source: US20040121965A1, “Method of treating resistant tumors” (Wyeth Holdings Corporation, priority 2002, published 2004)
Read-outs that look alike come from different tables or passages of the source.

Legend:
KB-V1 (MDR1++) = experiment: Cell survival assay (SRB), KB-V1 (MDR1++); conditions: for IC50: Homo sapiens
KB-8-5 (MDR1+) = experiment: Cell survival assay (SRB), KB-8-5 (MDR1+); conditions: for IC50: Homo sapiens
KB-3-1 = experiment: Cell survival assay (SRB), KB-3-1; type: cell-based, human; conditions: Homo sapiens
In short: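 IC50 for 50% growth inhibition after 3-day compound exposure, tested in duplicate. SRB protein staining of TCA-fixed cells (10% TCA, 1 hr, 4 °C), solubilised in Tris base and read by absorbance, was used as the survival read-out, with KB-3-1 grown in 20% FCS.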

[1] = read-out: In vitro IC50 (nM) KBV1
[2] = MDR1, read-out: In vitro IC50 (nM) KB85
[3] = KB 3-1, KB-3-1 cells (paclitaxel-sensitive parent), read-out: In vitro IC50 (nM) KB-3-1

Row | Compound | Ratio KBV1/KB (KB-V1 (MDR1++)) | IC50 (KB-V1 (MDR1++); [1]) | Ratio KB85/KB (KB-8-5 (MDR1+)) | IC50 (KB-8-5 (MDR1+); [2]) | IC50 (KB-3-1; [3]) | RR, relative resistance (KB-V1 (MDR1++)) | IC50 (KB-V1 (MDR1++); read-out: KB-V1 (MDR1++) IC50, nM (N)) | RR, relative resistance (KB-8-5 (MDR1+)) | IC50 (KB-8-5 (MDR1+); MDR1, read-out: KB-8-5 (MDR1+) IC50, nM (N)) | IC50 (KB-3-1; KB 3-1, KB-3-1 parental, Table 3, read-out: KB-3-1 IC50, nM (N)) | IC50 (KB-V1 (MDR1++); read-out: In vitro IC50 KBV1)
1 | CN[C@@H](C(=O)N[C@H](C(=O)N(C)[C@H](/C=C(\C)C(=O)O)C(C)C)C(C)(C)C)C(C)(C)c1ccc(Cl)cc1 [Example 6, 4-Chloro-N,β,β-trimethyl-D-phenylalanyl-N^1-[(1S,2E)-3-carboxy-1-isopropyl-2-butenyl]-N^1,3-dimethyl-L-valinamide] | 162.4 | 1380 nM | 2.0 | 17.4 nM | 8.5 nM | – | – | – | – | – | –
2 | CN[C@H](C(=O)N[C@H](C(=O)N(C)[C@H](/C=C(\C)C(=O)O)C(C)C)C(C)(C)C)C(C)(C)Cc1ccccc1 [Example 48, N,3-Dimethyl-4-phenyl-L-valyl-N^1-[(1S,2E)-3-carboxy-1-isopropyl-2-butenyl]-N^1,3-dimethyl-L-valinamide] | 81.0 | 219 nM | 2.2 | 6 nM | 2.7 nM | – | – | – | – | – | –
3 | CN[C@H](C(=O)N[C@H](C(=O)N(C)[C@H](/C=C(\C)C(=O)O)C(C)C)C(C)(C)c1ccc(C(=O)c2ccccc2)cc1)C(C)(C)c1ccccc1 [Example 90, N,β,β-trimethyl-L-phenylalanyl-4-benzoyl-N-[(1S,2E)-3-carboxy-1-isopropyl-2-butenyl]-N,β,β-trimethyl-L-phenylalaninamide] | 133.9 | ≥ 3000 nM | 4.3 | 96.9 nM | 22.4 nM | – | – | – | – | – | –
4 | CN[C@H](C(=O)N[C@H](C(=O)N(C)[C@H](/C=C(\C)C(=O)O)C(C)C)[C@H](C)O)C(C)(C)c1ccccc1 [Example 86, N,β,β-trimethyl-L-phenylalanyl-N^1-[(1S,2E)-3-carboxy-1-isopropyl-2-butenyl]-N^1-methyl-L-allothreoninamide] | 9.7 | ≥ 3000 nM | 2.2 | 669 nM | 311 nM | – | – | – | – | – | –
5 | CCCCCC(C)(C)[C@@H](NC)C(=O)N[C@H](C(=O)N(C)[C@H](/C=C(\C)C(=O)O)C(C)C)C(C)(C)C [Example 51, (2E,4S)-4-[((2S)-2-{[(2R)-3,3-dimethyl-2-(methylamino)octanoyl]amino}-3,3-dimethylbutanoyl)(methyl)amino]-2,5-dimethyl-2-hexenoic Acid] | 13.4 | ≥ 3000 nM | 1.6 | 363 nM | 224 nM | – | – | – | – | – | –
6 | C/C(=C\[C@H](C(C)C)N(C)C(=O)[C@@H](NC(=O)[C@@H](N(C)CCO)C(C)(C)c1ccccc1)C(C)(C)C)C(=O)O [Example 53, N-(2-hydroxyethyl)-N,β,β-trimethyl-L-phenylalanyl-N^1-[(1S,2E)-3-carboxy-1-isopropylbut-2-enyl]-N^1,3-dimethyl-L-valinamide] | 67.1 | ≥ 3000 nM | 1.4 | 61.7 nM | 44.7 nM | – | – | – | – | – | –
7 | C/C(=C\[C@H](C(C)C)N(C)C(=O)[C@@H](NC(=O)[C@@H](NCCO)C(C)(C)c1ccccc1)C(C)(C)C)C(=O)O [Example 153, N-(2-hydroxyethyl)-β,β-dimethyl-L-phenylalanyl-N^1-[(1S,2E)-3-carboxy-1-isopropylbut-2-enyl]-N^1,3-dimethyl-L-valinamide] | 16.4 | > 3000 nM | 3.4 | 616 nM | 183 nM | – | – | – | – | – | –
8 | CN[C@H](C(=O)N[C@H](C(=O)N(C)[C@H](/C=C(\C)C(=O)O)C(C)C)C(C)(C)C)C(C)(C)c1cn(C)c2ccccc12 [Hemiasterlin, hemiasterlin, reference compound] | – | – | – | – | – | 239 | 76.1 nM | 3.2 | 1 nM | 0.319 ± 0.095 nM | –
9 | CCOC(=O)/C(C)=C/[C@H](C(C)C)N(C)C(=O)/C(C)=C/[C@H](C(C)C)N(C)C(=O)[C@@H](NC(=O)[C@@H](NC)C(C)(C)c1ccccc1)C(C)(C)C [Example 113, N,β,β-trimethyl-L-phenylalanyl-N^1-{(1S,2E)-4-[[(1S,2E)-4-ethoxy-1-isopropyl-3-methyl-4-oxobut-2-enyl](methyl)amino]-1-isopropyl-3-methyl-4-oxobut-2-enyl}-N^1,3-dimethyl-L-valinamide] | 32.3 | 582 nM | 1.9 | 34 nM | 18 nM | – | – | – | – | – | –
10 | CN[C@@H](C(=O)N[C@H](C(=O)N(C)[C@H](/C=C(\C)C(=O)O)C(C)C)C(C)(C)C)C(C)(C)c1cccs1 [Example 21, N-Methyl-3-(2-thienyl)-D-valyl-N^1-[(1S,2E)-3-carboxy-1-isopropyl-2-butenyl]-N^1,3-dimethyl-L-valinamide] | 74.4 | 758 nM | 1.8 | 18.2 nM | 10.2 nM | – | – | – | – | – | –
11 | CN[C@@H](C(=O)N[C@H](C(=O)N(C)[C@H](/C=C(\C)C(=O)O)C(C)C)C(C)(C)C)C(C)(C)c1ccsc1 [Example 24, N-Methyl-3-thien-3-yl-D-valyl-N^1-[(1S,2E)-3-carboxy-1-isopropylbut-2-enyl]-N^1,3-dimethyl-L-valinamide] | 182.9 | 1740 nM | 2.4 | 22.4 nM | 9.5 nM | – | – | – | – | – | –
12 | C=CC[C@@H](/C=C(\C)C(=O)O)N(C)C(=O)[C@@H](NC(=O)[C@@H](NC)C(C)(C)c1ccccc1)C(C)(C)C [Example 119, N,β,β-trimethyl-L-phenylalanyl-N^1-[(1S,2E)-1-allyl-3-carboxybut-2-enyl]-N^1,3-dimethyl-L-valinamide] | – | – | 3.0 | 164 nM | 55 nM | – | – | – | – | – | > 3000 nM
13 | CNC(C(=O)NC(C)C(=O)N(C)C(C=C(C)C(=O)O)C(C)C)C(C)(C)c1ccccc1.O=C(O)C(F)(F)F (stereo not shown) [Example 103, 2,5-dimethyl-4-{methyl-[2-(3-methyl-2-methylamino-3-phenyl-butyrylamino)-propionyl]-amino}-hex-2-enoic Acid Trifluoroacetic Acid] | 15.3 | 2610 nM | 13.3 | 2260 nM | 170 nM | – | – | – | – | – | –
14 | CN[C@H](C(=O)N[C@H](C(=O)N(C)[C@H](/C=C(\C)C(=O)O)C(C)C)C(C)(C)C)C(C)(C)c1cc(F)cc(F)c1 [Example 64, 3,5-Difluoro-N,β,β-trimethyl-L-phenylalanyl-N^1-[(1S,2E)-3-carboxy-1-isopropylbut-2-enyl]-N^1,3-dimethyl-L-valinamide] | 73.7 | 457 nM | 2.6 | 16.2 nM | 6.2 nM | – | – | – | – | – | –
15 | CN[C@H](C(=O)N[C@H](C(=O)N(C)[C@H](/C=C(\C)C(=O)O)C(C)C)C(C)(C)C)C(C)(C)c1cccc(Br)c1 [Example 37, 3-bromo-N,β,β-trimethyl-L-phenylalanyl-N^1-[(1S,2E)-3-carboxy-1-isopropylbut-2-enyl]-N^1,3-dimethyl-L-valinamide] | 82.2 | 148 nM | 2.3 | 4.1 nM | 1.8 nM | – | – | – | – | – | –
16 | CN[C@@H](C(=O)N[C@H](C(=O)N(C)[C@H](/C=C(\C)C(=O)O)C(C)C)C(C)(C)C)C(C)(C)c1cccc(F)c1 [Example 61, 3-Fluoro-N,β,β-trimethyl-D-phenylalanyl-N^1-[(1S,2E)-3-carboxy-1-isopropyl-2-butenyl]-N^1,3-dimethyl-L-valinamide] | 79.4 | 1000 nM | 1.5 | 18.6 nM | 12.6 nM | – | – | – | – | – | –
17 | C/C(=C\[C@H](C(C)C)N(C)C(=O)[C@@H](NC(=O)[C@@H](N1CCCC1)C(C)(C)c1ccccc1)C(C)(C)C)C(=O)O [Example 152, (2E,4S)-2,5-dimethyl-4-(methyl{3-methyl-N-[(2S)-3-methyl-3-phenyl-2-pyrrolidin-1-ylbutanoyl]-L-valyl}amino)hex-2-enoic Acid] | 40 | > 3000 nM | 2.1 | 158 nM | 75 nM | – | – | – | – | – | –
18 | CN[C@H](C(=O)N[C@H](C(=O)N(C)[C@H](/C=C/C(=O)O)C(C)C)C(C)(C)C)C(C)(C)c1ccccc1 [Example 118, N,β,β-trimethyl-L-phenylalanyl-N^1-[(1S,2E)-3-carboxy-1-isopropylprop-2-enyl]-N^1,3-dimethyl-L-valinamide] | 15.7 | ≥ 3000 nM | 2.5 | 479 nM | 190 nM | – | – | – | – | – | –
19 | CN[C@H](C(=O)N[C@H](C(=O)N(C)[C@H](/C=C(\C)C(=O)O)C(C)C)C(C)(C)F)C(C)(C)c1ccccc1 [Example 149, N,β,β-trimethyl-L-phenylalanyl-N^1-[(1S,2E)-3-carboxy-1-isopropylbut-2-enyl]-3-fluoro-N^1-methyl-L-valinamide] | – | 117 nM | 2.2 | 3.5 nM | 1.6 nM | – | – | – | – | – | –
20 | CN[C@H](C(=O)N[C@H](C(=O)N(C)[C@H](/C=C(\C)C(=O)O)C(C)C)C(C)(C)C)C(C)(C)c1cc(C)cc(C)c1 [Example 17, N,β,β,3,5-Pentamethyl-L-phenylalanyl-N^1-[(1S,2E)-3-carboxy-1-isopropyl-2-butenyl]-N^1,3-dimethyl-L-valinamide] | 75.7 | 44 nM | – | 1 nM | 1 nM | – | – | – | – | – | –
